One series can be described thus: pH of baked bread. In kind it is physicochemical.
The next series concerns mold. Description: Mold-free shelf life of packaged bread, inspected daily (days to mold). The protocol: Bread is prepared using the no-time, straight dough method by mixing the following ingredients in a Hobart A200 mixer with a McDuffy attachment for a total of 8 minutes until full gluten development is obtained: flour (100%), water (68%), granulated sugar (7%), shortening (4%), fresh yeast (2.5%), 30% acetic acid vinegar or 300 grain vinegar (0%, 2%, 1% or 0.5%), and citric acid (0% or 0.1%). Mixed dough is rested for 10 minutes on bench then scaled into two 520 gram dough pieces and rounded by hand. Rounded dough is rested 10 minutes then is sheeted and molded into logs. Sheeted and molded logs are placed into oiled bread pans and placed into proof box (National Manufacturing) and set to 110° F. and 80% relative humidity. Dough is proofed to a consistent height, as measured by a template which was 0.75 inches above the rim of the bread pan. Proof time is considered to be time for dough to touch the top of the template minus initial time in the proof box. Proofed dough is then placed into an oven and baked for 20 minutes at a temperature of 420° F. Internal temperature of the bread exiting the oven is 195° F.-200° F. Baked bread is cooled at room temperature on a wire rack for one hour to an internal temperature of between 95° F. and 100° F. After cooling, bread is sliced and packaged in plastic bags and sealed with twist ties. Packaged bread is stored at room temperature 70° F.-75° F. and visually inspected for mold appearance on a daily basis. Bread is considered as expired/failed upon first sign of mold.
Mixed dough is rested for 10 minutes on bench then scaled into two 520 gram dough pieces and rounded by hand. Rounded dough is rested 10 minutes then sheeted and molded into logs. Sheeted and molded logs are placed into oiled bread pans and placed into proof box (National Manufacturing) set to 110° F. and 80% relative humidity. Dough is proofed to a consistent height, as measured by a template which was 0.75 inches above the rim of the bread pan. Proof time is considered to be time for dough to touch the top of the template minus initial time in the proof box. Proofed dough is then placed into an oven and is baked for 20 minutes at a temperature of 420° F. The internal temperature of the bread exiting the oven is 195° F.-200° F. Baked bread is cooled at room temperature on a wire rack for one hour to an internal temperature of between 95° F. and 100° F. After cooling, the bread is sliced and packaged in plastic bags and sealed with twist ties.
Packaged bread is stored at room temperature 70° F.-75° F. Packaged bread is visually inspected for mold appearance on a daily basis. Bread is considered as expired/failed upon first sign of mold.

Regarding `CCC(=O)[O-].CCC(=O)[O-].[Ca+2]` [Calcium Propionate, calcium propionate], the “pH Bread” value came out at 5.60 in the series “pH of baked bread” (Table 4, 0.33%); 5.45 in the series “pH of baked bread” (Table 4, 0.5%); 5.62 in “pH of baked bread” (Table 6, 0.33%); 5.72 in the series “pH of baked bread” (Table 7, 0.33%); 5.57 in “pH of baked bread” (Table 8, 0.33% (flour basis)); 5.57 in the series “pH of baked bread” (Table 8, 0.50% (flour basis)). Also, the “pH Bread” value in “pH of baked bread” (Table 8, 0.75% (flour basis)) was 5.58; in the series “pH of baked bread” (Table 8, 1.00% (flour basis)), 5.59. The “Days to Mold” value in the series with mold (Table 4, 0.33%) is listed as 15 days; with mold (Table 4, 0.5%) it was 17 days; in the series with mold (Table 6, white pan bread, 0.33%), 14 days; with mold (Table 7, white pan bread, 0.33%), 14 days; with mold (Table 8, 0.33% (flour basis)) it was 9 days; with mold (Table 8, 0.50% (flour basis)), 12 days. Further, the “Days to Mold” value in the series with mold (Table 8, 0.75% (flour basis)) came to 23 days; with mold (Table 8, 1.00% (flour basis)), 32 days; in the series on mold (Table 9, White Pan Bread, 0.33%) it was 11 days; with mold (Table 10, White Pan Bread, 0.33%) it was 15 days; in the series with mold (Table 10, 0.50%) it was 17 days.

Values taken from US20130045299A1, “Natural Mold Inhibitor and Methods of Using Same” (priority 2011, published 2013).
